Results on two compounds are retold here after ChEMBL document CHEMBL5674871, “EZH2 is required for mouse oocyte meiotic maturation by interacting with and stabilizing spindle assembly checkpoint protein BubRI” (Nucleic Acids Res, 2016).

Activity calls are given as the source filed them. The calls are words filed in the database; no cut-off is given here.

The target in assay [1] is Histone-lysine N-methyltransferase EZH2 (Mus musculus) (UniProt Q61188). In words: Inhibition of EZH2 in ICR mouse oocyte assessed as effect on H3 level at 1 uM by Immunofluorescence analysis. The class given is cell-based.
Chain of Histone-lysine N-methyltransferase EZH2 (Mus musculus) (Q61188 whole entry): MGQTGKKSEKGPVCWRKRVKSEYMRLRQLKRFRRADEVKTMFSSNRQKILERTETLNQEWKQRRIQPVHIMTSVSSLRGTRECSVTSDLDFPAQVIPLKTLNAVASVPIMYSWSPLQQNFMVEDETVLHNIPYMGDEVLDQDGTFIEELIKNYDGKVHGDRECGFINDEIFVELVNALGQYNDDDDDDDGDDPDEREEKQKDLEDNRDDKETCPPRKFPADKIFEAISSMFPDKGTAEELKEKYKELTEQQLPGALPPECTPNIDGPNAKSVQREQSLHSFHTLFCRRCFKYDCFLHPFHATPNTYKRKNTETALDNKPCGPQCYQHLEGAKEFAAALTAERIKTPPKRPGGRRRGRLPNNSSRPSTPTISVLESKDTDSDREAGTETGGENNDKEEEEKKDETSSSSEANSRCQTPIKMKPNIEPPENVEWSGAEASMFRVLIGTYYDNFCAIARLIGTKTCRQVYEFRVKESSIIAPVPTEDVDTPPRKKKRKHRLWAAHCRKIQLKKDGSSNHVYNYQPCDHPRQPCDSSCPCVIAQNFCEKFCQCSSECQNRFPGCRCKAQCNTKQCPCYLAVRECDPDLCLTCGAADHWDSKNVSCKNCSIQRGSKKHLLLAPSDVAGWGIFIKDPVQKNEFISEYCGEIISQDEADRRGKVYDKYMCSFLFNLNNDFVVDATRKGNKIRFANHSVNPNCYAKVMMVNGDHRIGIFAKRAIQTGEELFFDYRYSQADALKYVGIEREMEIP
Assay [2] shares this target. In words: Inhibition of EZH2 in ICR mouse oocyte assessed as EED protein level at 1 uM by Western blot analysis. The class given is cell-based.
The test system of assay [3] is Oocyte. In words: Effect on ICR mouse oocyte meiotic maturation assessed as abnormal polar bodies extrusions at 1 uM after 14 hrs by immunofluorescence analysis. The assay is classed as functional, cell-based.
Assay [4] deals with Histone-lysine N-methyltransferase EZH2 (Mus musculus) (UniProt Q61188). Kind of assay: Inhibition of EZH2 methyltransferase activity in ICR mouse oocyte assessed as effect on H3K9me2 level at 1 uM by Immunofluorescence analysis. The class given is cell-based.
Assay [5] deals with Oocyte. In words: Effect on EZH2 protein expression in ICR mouse oocyte at 1 uM for 14 hrs by Western blot analysis. The assay is classed as functional, cell-based. Background: A western blot detects proteins with antibodies after separation by electrophoresis.
The test system of assay [6] is Oocyte. In words: Effect on ICR mouse oocyte meiotic maturation assessed as PB1 extrusions at 1 uM by immunofluorescence analysis. The class given is functional, cell-based.
Assay [7] deals with Histone-lysine N-methyltransferase EZH2 (Mus musculus) (UniProt Q61188). In words: Inhibition of EZH2 methyltransferase activity in ICR mouse oocyte assessed as decrease in H3K27 trimethylation level at 1 uM by Immunofluorescence analysis. The assay is classed as cell-based.
Assay [8] has the same target. Kind of assay: Inhibition of EZH2 in ICR mouse oocyte assessed as SUZ12 protein level at 1 uM by Western blot analysis. The class given is cell-based.
For assay [9] the target is unchanged. Kind of assay: Inhibition of EZH2 in ICR mouse oocyte assessed as decrease in H3K27 trimethylation level at 5 uM by Immunofluorescence analysis. The assay is classed as cell-based.
In assay [10] the test system is Oocyte. In words: Effect on EZH2 protein expression in ICR mouse oocyte at 5 uM for 14 hrs by Western blot analysis. The assay is classed as functional, cell-based.
Assay [11] concerns the target Histone-lysine N-methyltransferase EZH2 (Mus musculus) (UniProt Q61188). In words: Inhibition of EZH2 methyltransferase activity in ICR mouse oocyte assessed as decrease in H3K9me2 level at 5 uM by Immunofluorescence analysis. The class given is cell-based.
Assay [12] has the same target. In words: Inhibition of EZH2 in ICR mouse oocyte assessed as EED protein level at 5 uM by Western blot analysis. The assay is classed as cell-based.
The test system of assay [13] is Oocyte. In words: Effect on ICR mouse oocyte meiotic maturation assessed as PB1 extrusions at 5 uM by immunofluorescence analysis. The class given is functional, cell-based.
Assay [14] addresses Histone-lysine N-methyltransferase EZH2 (Mus musculus) (UniProt Q61188). Kind of assay: Inhibition of EZH2 in ICR mouse oocyte assessed as SUZ12 protein level at 5 uM by Western blot analysis. The assay is classed as cell-based.
Assay [15] shares this target. Kind of assay: Inhibition of EZH2 in ICR mouse oocyte assessed as effect on H3 level at 5 uM by Immunofluorescence analysis. The assay is classed as cell-based.

Consider `CCCc1cc(C)[nH]c(=O)c1CNC(=O)c1cc(-c2ccnc(N3CCN(C)CC3)c2)cc2c1cnn2C(C)C`, for which the inhibition result in assay [1], in assay [2], in assay [4] and in assay [8] was “inactive” each time. Besides, the outcome in the assay on Oocyte [3] was Active. Further, the result in the assay with Oocyte [5] and in the assay on Oocyte [6] was inactive. Also, in [7], the inhibition result is “Active”.
Regarding `Nc1nccc2c1ncn2[C@@H]1C=C(CO)[C@@H](O)[C@H]1O`, the inhibition entry in assay [9] and in assay [11] was “Active” in each case. Further, the outcome in the assay on Oocyte [10] and with Oocyte [13] was inactive. Also, the inhibition result in [12], in [14] and in [15] was “inactive” each time.
